Values joined by “and” are separate entries in the source; they are usually repeats but may differ in a detail not shown here. Identical values can stand only once. Like-named read-outs stand apart in the source and are kept apart here.
Assays:
purified CaMKIIα [1] = assay: Km of CaMKII for ATP (GST-GluA1 S831 phosphorylation with increasing ATP); format: biochemical
purified CaMKIIα [2] = test system: purified CaMKIIα; set-up: method as in PMID 29294328, PMID 8385100, PMID 19857459, PMID 14558884; conditions: read-out: previously published Km values for ATP; cited from earlier work
purified CaMKIIα [3] = assay: Km of CaMKII for ATP (GST-GluA1 S831 phosphorylation with increasing ATP); format: biochemical; conditions: 30 °C, 4 independent experiments, read-out: CaMKII Michaelis-Menten constant (Km) for ATP
Experimental: CaMKII-mediated phosphorylation of GluA1 S831 or GluN2B S1303 was measured by in vitro kinase reaction with a purified GST–GluA1 C-terminal tail or GST-GluN2B C-terminal tail. Reactions contained 40 nM CaMKII, 1 μM GST–GluA1, 50 mM PIPES, pH 7.1, 2 mM CaCl2, 10 mM MgCl2, 1 μM calmodulin, 1–4 mM ATP and 1 μM okadaic acid. Negative controls were prepared without ATP. Reactions were done at 30 °C for 20 s; reactions were stopped by adding SDS loading buffer and incubation in a boiling water bath for 5 min. GST, phospho-S831, CaMKII, phospho-T286 or phospho-S1303 were detected in the samples by immunoblot analysis. […]
Data are presented as mean values +/− SEM. a, Comparison of AS105 vs AS283 structure. b, Representative Immunoblots and quantification of in vitro kinase reactions at 30 °C with increasing ATP concentration measuring purified CaMKIIα phosphorylation of GST-GluA1 S831. […] Correlation indices before and after ionomycin-induced colocalization of GFP-CaMKII and mCherry-2BC under vehicle or 10 μM AS105 conditions (n = 23,18 cells; ***p < 0.001, RM two-way ANOVA with Šídák’s multiple comparisons test). Scale bar indicates 10 μm. […] CaMKII synaptic enrichment was measured before and after cLTP (n = 11,10 cells; *p < 0.05; RM two-way ANOVA with Šídák’s multiple comparisons test). […]

[4] = target: purified CaMKIIα binding to GST–GluN2B-c WT (Homo sapiens, UniProt Q9UQM7); assay: CaMKII binding to immobilized GST–GluN2B-c in vitro; conditions: Ca2+/CaM, 1 mM ATP; GST–GluN2B-c WT
Experimental: CaMKII–GluN2B binding assays were done as described[9],[13],[25]. Briefly, GST–GluN2B-c tail (GST–2BC) was immobilized on anti-GST antibody-coated microtiter plates (Thermo Scientific), blocked for 30 min with 5% BSA and then overlaid with […] CaMKII (subunit concentration) in PIPES-buffered saline (pH 7.2) containing 2 mM Ca^2+, 1 μM CaM, 1 mM Mg^2+, 0.1% BSA and 0.1% Tween-20 for 20 min at room temperature. […] After extensive washes in buffer containing 1 mM EGTA, GST–2BC and bound CaMKII were eluted for 10 min in SDS loading buffer at 95 °C. Bound CaMKII was measured via immunoblot.

[5] = test system: CA3–CA1 Schaffer collateral pathway LTP; set-up: method as in PMID 2549638; conditions: previous studies; cited from earlier work

| Structure (SMILES) | CaMKIIα phosphorylation of GST-GluA1 S831 (relative) (purified CaMKIIα [1]; 1.5625 uM ATP) | CaMKIIα phosphorylation of GST-GluA1 S831 (relative) (purified CaMKIIα [1]; 25 uM ATP) | CaMKIIα phosphorylation of GST-GluA1 S831 (relative) (purified CaMKIIα [1]; 100 uM ATP) | CaMKIIα phosphorylation of GST-GluA1 S831 (relative) (purified CaMKIIα [1]; 200 uM ATP) | CaMKIIα phosphorylation of GST-GluA1 S831 (relative) (purified CaMKIIα [1]; 400 uM ATP) | Km (purified CaMKIIα [2]) | Km (purified CaMKIIα [3]) | bound CaMKIIα (immunoblot, relative) [4] | effect on LTP [5] |
| --- | --- | --- | --- | --- | --- | --- | --- | --- | --- |
| Nc1ncnc2c1ncn2[C@@H]1O[C@H](COP(=O)(O)OP(=O)(O)OP(=O)(O)O)[C@@H](O)[C@H]1O [ATP] | 0 | 0.594 and 0.4443 and 0.666 and 0.3478 | 0.9012 and 0.7992 and 1.006 and 0.6032 | 1.078 and 0.8135 and 1.004 and 0.7632 | 1.127 and 0.9367 (2×) | 8 to 127 µM | 33.3 µM | 4.397 and 5.355 and 6.655 and 4.688 |  |
| CC1CNCCN1S(=O)(=O)c1cccc2cnccc12 (stereo not drawn) [H7] |  |  |  |  |  |  |  |  | LTP inhibition |
